The NIST ThermoML archive (doi:10.1021/je800150h)

Experiment: mn = molality of the nth substance listed, in mol/kg
Settings: 101 kPa, Liquid; for electrical conductivity: CyberScan CON500 conductivity meter

[Cl-].[Li+] [lithium chloride] + O
Settings	electrical conductivity [S/m]	mass density [kg/m3]	viscosity [mPa·s]
268.1 K, m1 = 0.5	–	1013.4	2.273
268.1 K, m1 = 1	–	1024.4	2.554
268.1 K, m1 = 2	–	1047.1	2.831
268.1 K, m1 = 3	–	1067.8	3.191
268.1 K, m1 = 4.5	–	1095.9	3.649
268.1 K, m1 = 6	–	1121.7	4.461
268.1 K, m1 = 8	–	1155.4	6.735
268.1 K, m1 = 11	–	1200.2	10.85
268.1 K, m1 = 14	–	1240.7	18.98
268.1 K, m1 = 17.8	–	1288.4	28.66
273.1 K, m1 = 0.5	–	1013.2	1.944
273.1 K, m1 = 1	–	1024.4	2.107
273.1 K, m1 = 2	–	1046.9	2.37
273.1 K, m1 = 3	–	1067.4	2.681
273.1 K, m1 = 4.5	–	1095	3.133
273.1 K, m1 = 6	–	1121.2	3.815
273.1 K, m1 = 8	–	1153.7	5.744
273.1 K, m1 = 11	–	1198.7	9.191
273.1 K, m1 = 14	–	1239.1	15.82
273.1 K, m1 = 17.8	–	1286.4	24.99
278.1 K, m1 = 0.5	2.61	–	1.663
278.1 K, m1 = 1	4.64	1024	1.784
278.1 K, m1 = 2	7.64	1046.3	2
278.1 K, m1 = 3	9.59	1066.4	2.266
278.1 K, m1 = 4.5	11.5	1094.1	2.69
278.1 K, m1 = 6	12	1119.8	3.258
278.1 K, m1 = 8	11.5	1152.6	4.899
278.1 K, m1 = 11	9.37	1197.1	7.784
278.1 K, m1 = 14	6.99	1237.4	13.17
278.1 K, m1 = 17.8	4.71	1284.2	21.79
283.1 K, m1 = 0.5	2.99	1012.5	1.424
283.1 K, m1 = 1	5.2	1023.3	1.518
283.1 K, m1 = 2	8.61	1045.3	1.701
283.1 K, m1 = 3	11	1065.4	1.936
283.1 K, m1 = 4.5	13	1092.8	2.303
283.1 K, m1 = 6	13.6	1118.8	2.777
283.1 K, m1 = 8	13.1	1151.4	4.17
283.1 K, m1 = 11	10.7	1195.6	6.579
283.1 K, m1 = 14	8.01	1235.8	10.97
283.1 K, m1 = 17.8	5.52	1282.2	19.66
288.15 K, m1 = 0.5	3.35	1011.6	1.243
288.15 K, m1 = 1	5.87	1022.2	1.346
288.15 K, m1 = 2	9.62	1044.1	1.502
288.15 K, m1 = 3	12.3	1064.3	1.729
288.15 K, m1 = 4.5	14.5	1091.5	2.034
288.15 K, m1 = 6	15.2	1117.4	2.452
288.15 K, m1 = 8	14.6	1149.8	3.602
288.15 K, m1 = 11	12.1	1194	5.63
288.15 K, m1 = 14	9.09	1234.1	9.142
288.15 K, m1 = 17.8	6.45	1280.2	17.14
293.15 K, m1 = 0.5	3.74	1010.8	1.087
293.15 K, m1 = 1	6.53	1021.4	1.16
293.15 K, m1 = 2	10.7	1043	1.308
293.15 K, m1 = 3	13.7	1063.1	1.495
293.15 K, m1 = 4.5	16.1	1090.5	1.777
293.15 K, m1 = 6	16.9	1116.1	2.131
293.15 K, m1 = 8	16.3	1148.5	3.199
293.15 K, m1 = 11	13.6	1192.5	4.898
293.15 K, m1 = 14	10.4	1232.6	7.966
293.15 K, m1 = 17.8	7.44	1278.3	–
